Each structure is given as a SMILES string. Entries after “also recorded” stand apart in the source; their conditions may differ.

These results are taken from publication PMC11324046, “Second-generation piperazine derivatives as promising radiation countermeasures” (RSC Medicinal Chemistry, 2024).

The test system of one series is mice. The arrangement: method as in PMID 29852368. Conditions: 200 mg kg^−1 dose; cited from earlier work.
Series [1] is described as follows: WST-1 proliferation assay, Jurkat. Conditions: human, Jurkat cells (acute T-cell leukemia), vs 0.1% DMSO control = 100%, mean ± standard deviation. The series is classed as cell-based. The protocol: (§1) A thorough analysis of antiproliferative activity was performed across various cell culture types representing different histotypes: leukemia (Jurkat, MOLT-4), lung adenocarcinoma (A549), colorectal adenocarcinoma (HT-29), pancreatic carcinoma (PANC-1), breast adenocarcinoma (MCF-7), osteosarcoma (SAOS-2), and one non-cancerous cell line (fetal lung fibroblasts MRC-5). The cell lines were exposed to the newly synthesized compounds at a concentration of 100 μM for 48 h in a single-dose treatment. Changes in cell proliferation compared to the vehicle 0.1% dimethyl sulfoxide (DMSO) control were determined using the WST-1 assay, which is based on mitochondrial dehydrogenase metabolic activities. […] The overall cytotoxic activity of each compound was expressed as growth percent (GP) – the mean of the proliferation of all cell lines treated with the same compound.
(§2) Selected human tumor and non-tumor cell lines Jurkat (acute T-cell leukemia), MOLT-4 (acute lymphoblastic leukemia), A549 (lung carcinoma), HT-29 (colorectal adenocarcinoma), PANC-1 (pancreas epithelioid carcinoma), MCF-7 (breast adenocarcinoma), SAOS-2 (osteosarcoma) and MRC-5 (normal lung fibroblasts) were purchased from either American Type Culture Collection (ATCC; VA, USA) or Sigma-Aldrich (St. Louis, MO, USA) and cultured according to the provider's culture method guidelines. All cell lines were maintained at 37 °C in a humidified 5% carbon dioxide and 95% air incubator. Cells in the maximum range of either 10 passages for the adherent cell lines (A549, HT-29, PANC-1, MCF-7, SAOS-2, and MRC-5), or 20 passages for suspension cell lines (Jurkat, MOLT-4,) and in an exponential growth phase were used for this study. Screening of the antiproliferative effect and growth percent calculation were conducted as follows: each cell line was seeded at previously established optimal density (1–50 × 10^3 cells per well) in a 96-well plate (TPP, Trasadingen, Switzerland) and cells were allowed to settle overnight. Cells were treated for 48 h with compounds at a final concentration of 100 μM. At the end of the cultivation period, the WST-1 proliferation assay (Roche, Basel, Switzerland) was performed according to the manufacturer's protocol. The absorbance was measured at 440 nm using a Tecan Spark multimode microplate reader (Tecan, Mannedorf, Switzerland). Each value is the mean of three independent experiments and represents the percentage of proliferation (100% cell proliferation for 0.1% DMSO mock-treated control cells). The GP value was calculated for each compound tested. GP represents the mean of the percentage proliferation decrease of all cell lines treated with the same compound.
Background: Formazan colour is commonly taken as a measure of viable cells.

The nature of series [2]: WST-1 proliferation assay, MOLT-4. The series is classed as cell-based. The settings on record: human, MOLT-4 cells (acute lymphoblastic leukemia), vs 0.1% DMSO control = 100%, mean ± standard deviation. The protocol:
as §1, §2

A short description of series [3]: WST-1 proliferation assay, A549. The series is classed as cell-based. Conditions: human, A549 cells (lung carcinoma), vs 0.1% DMSO control = 100%, mean ± standard deviation. The protocol:
as §1, §2

A short description of series [4]: WST-1 proliferation assay, HT-29. The series is classed as cell-based. The settings on record: human, HT-29 cells (colorectal adenocarcinoma), vs 0.1% DMSO control = 100%, mean ± standard deviation. The protocol: as §1, §2
Series [5] is described as follows: WST-1 proliferation assay, PANC-1. Conditions: human, PANC-1 cells (pancreas epithelioid carcinoma), vs 0.1% DMSO control = 100%, mean ± standard deviation. The series is classed as cell-based. The protocol:
as §1, §2

Series [6] can be described thus: WST-1 proliferation assay, MCF-7. The series is classed as cell-based. Conditions: human, MCF-7 cells (breast adenocarcinoma), vs 0.1% DMSO control = 100%, mean ± standard deviation. The protocol:
as §1, §2

Series [7] can be described thus: WST-1 proliferation assay, SAOS-2. The series is classed as cell-based. Conditions: human, SAOS-2 cells (osteosarcoma), vs 0.1% DMSO control = 100%, mean ± standard deviation. The protocol: as §1, §2
Series [8] can be described thus: WST-1 proliferation assay, MRC-5. The series is classed as cell-based. Conditions: human, MRC-5 cells (normal lung fibroblasts), vs 0.1% DMSO control = 100%, mean ± standard deviation. The protocol: as §1, §2
The subject of series [9] is panel of human cell lines. Briefly: Overall cytotoxicity screening across the cell line panel (growth percent). The series is classed as cell-based. Conditions: 100 μM, 48 h, single-dose treatment, WST-1. The protocol: as §1
Selected human tumor and non-tumor cell lines Jurkat (acute T-cell leukemia), MOLT-4 (acute lymphoblastic leukemia), A549 (lung carcinoma), HT-29 (colorectal adenocarcinoma), PANC-1 (pancreas epithelioid carcinoma), MCF-7 (breast adenocarcinoma), SAOS-2 (osteosarcoma) and MRC-5 (normal lung fibroblasts) were purchased from either American Type Culture Collection (ATCC; VA, USA) or Sigma-Aldrich (St. Louis, MO, USA) and cultured according to the provider's culture method guidelines. […]

As to `O=C1N=C(N2CCN(CCO)CC2)S/C1=C\c1ccc(-c2ccccc2)cc1` [CLZ-8], the “Survival of mice (in words)” value with mice is listed as “significantly improved their survival”.
Consider `OCCN1CCN(CC(O)COc2ccc(Oc3ccc(F)cc3)cc2)CC1` (stereo not shown) [Compound 7, 1-(4-(2-Hydroxyethyl)piperazin-1-yl)-3-(4-(4-fluorophenoxy)phenoxy)propan-2-ol], for which the viability at 48 h, 100 µM was 2% in [1]; 6 ± 5% in series [2]; 6 ± 2% in series [3]; 12 ± 2% in series [4]; 55 ± 6% in series [5]; 7 ± 7% in series [6]. The viability at 48 h, 100 µM in series [7] is 15 ± 5%; in series [8] it was 0%. The “Overall cytotoxic activity across cell lines (in words)” value in [9] is given as “severe toxicity to most of the tested cell lines; also recorded: exhibited stand-alone cytotoxicity”.
Turning to `OCCN1CCN(CC(O)COc2cc(Cl)c(Cl)cc2Cl)CC1` (stereo not shown) [Compound 8, 1-(4-(2-Hydroxyethyl)piperazin-1-yl)-3-(2,4,5-trichlorophenoxy)propan-2-ol], the viability at 48 h, 100 µM in series [1] was 28 ± 4%; in [2], 41 ± 8%; in [3] it was 92 ± 12%; in [4], 33 ± 3%; in [5], 101 ± 2%; in [6], 41 ± 7%. The viability at 48 h, 100 µM in series [7] came to 42 ± 5%; in series [8] it was 15 ± 10%. The “Overall cytotoxic activity across cell lines (in words)” value in series [9] is on record as “severe toxicity to most of the tested cell lines; also recorded: exhibited stand-alone cytotoxicity”.

As usually defined, the viability is a read-out of living cells in per cent, often relative to untreated cells.
